Laboratory results as given in paper PMC8008885 (Journal of Enzyme Inhibition and Medicinal Chemistry, 2021).

System: H3K9me3 occupancy in promoter regions
Assay: H3K9me3-ChIP sequencing of striatal tissue of YAC128 mice
Type: in vivo, mouse
Settings: for Fold(YACEi/YAC) H3K9me3 ChIP occupancy: APQ-treated YAC vs YAC mice striatum
Description: ChIP for H3K9me3 binding to DNA was performed using a CHIP assay kit (Santa Cruz, Dallas, TX) as described previously[21]^,[28]. Striatal tissues from WT, vehicle treated YAC128, and APQ-treated YAC128 mice were crossed-linked with 1% formaldehyde for 20 min at room temperature. Lysates were sonicated for 30 s six times using a Bioruptor (Diagenode Inc., Denville, NJ). After centrifugation, the supernatant was diluted in CHIP dilution buffer and incubated overnight at 4 °C with anti-H3K9me3 antibody. Immune complexes were recovered by the addition of 60 µl of salmon sperm DNA/protein A agarose-50% slurry and incubation at 4 °C for 2 h with rotation. Beads were pelleted and washed with low and high salt buffer followed by LiCl buffer (x3). Immune complexes were eluted by incubation with 500 µl of fresh elution buffer (1% SDS, 0.1 M NaHCO3) and 20 µl of 5 M NaCl. DNA was cleaned by the addition of 500 mM EDTA, 1 M Tris, and proteinase K at 66 °C for 4 h. The DNA solution was extracted with a phenol/chloroform/isoamyl alcohol mixture to remove protein contaminants, followed by precipitation with 100% ethanol. After precipitation, the pellet was washed with 70% ethanol and dissolved in 20 µl DW.
The Model-based Analysis of ChIP-Seq algorithm (MACS; v. 1.4.2) was used to identify regions of H3K9me3 enrichment with the default parameters. The peaks that pass a Poisson p values threshold of 0.1 were used for further analyses[28]^,[42]. In order to obtain reliable regions of enrichment, the regions detected in more than two samples were selected and aligned to define the consensus regions using DiffBind R package (v. 2.4.8)[43]. The reads in the consensus regions were counted and DESeq2 was applied to identify DMRs[44]. The DMRs were defined as p values of ≤.05 and only DMRs in promoter region (≤3 K from transcription start site) were selected.
Among the read peaks, a total of H3K9me3-enriched 71735 sites were commonly detected using MACS in WT, vehicle-treated YAC128, and APQ-treated YAC128 mice (using DiffBind R package). The reads were re-counted in the 71,735 sites (using DESeq2) and the H3K9me3-enriched sites in promoter region (≤3 K), with p values ≤.01 were selected. Then the H3K9me3-enriched sites with 1.5-fold higher in vehicle-treated YAC128 compared to WT and 1.5-fold lower in vehicle-treated YAC128 compared to APQ-treated YAC128 were finally selected.

`C=CCOc1cccc2nc(N3CCCC3)ccc12` [APQ, 5-allyloxy-2-(pyrrolidin-1-yl)quinoline] was tested, and the “Fold(YACEi/YAC)” value (H3K9me3 ChIP peak chrX_13041660_13042117, 5730405O15Rik, Promoter (<=1kb)) was -3.61, the “Fold(YACEi/YAC)” value (H3K9me3 ChIP peak chrX_20364227_20364518, Rp2, Promoter (<=1kb)) was -2.41 and the “Fold(YACEi/YAC)” value (H3K9me3 ChIP peak chrX_20656130_20656390, Uba1, Promoter (1-2kb)) was -3.37. The “Fold(YACEi/YAC)” value (H3K9me3 ChIP peak chrX_20953229_20953500, Elk1, Promoter (2-3kb)) was -2.86, the “Fold(YACEi/YAC)” value (H3K9me3 ChIP peak chrX_21482622_21482887, Agtr2, Promoter (1-2kb)) was -3.76 and the “Fold(YACEi/YAC)” value (H3K9me3 ChIP peak chrX_51205773_51206072, Mbnl3, Promoter (<=1kb)) was -4.38. The “Fold(YACEi/YAC)” value (H3K9me3 ChIP peak chrX_52575414_52575585, A630012P03Rik, Promoter (<=1kb)) was -2.24, the “Fold(YACEi/YAC)” value (H3K9me3 ChIP peak chrX_53059727_53060393, C430049B03Rik, Promoter (2-3kb)) was -2.78 and the “Fold(YACEi/YAC)” value (H3K9me3 ChIP peak chrX_55223440_55223928, Slxl1, Promoter (2-3kb)) was -3.59. The “Fold(YACEi/YAC)” value (H3K9me3 ChIP peak chrX_56214992_56215323, Gm773, Promoter (2-3kb)) was -3.3, the “Fold(YACEi/YAC)” value (H3K9me3 ChIP peak chrX_56345445_56345878, Zfp449, Promoter (<=1kb)) was -3.19 and the “Fold(YACEi/YAC)” value (H3K9me3 ChIP peak chrX_56823574_56823879, Map7d3, Promoter (1-2kb)) was -4.1. For the same compound, the “Fold(YACEi/YAC)” value (H3K9me3 ChIP peak chrX_57211052_57211422, Cd40lg, Promoter (<=1kb)) was -3.71, the “Fold(YACEi/YAC)” value (H3K9me3 ChIP peak chrX_59587905_59588513, Fgf13, Promoter (2-3kb)) was -4.9 and the “Fold(YACEi/YAC)” value (H3K9me3 ChIP peak chrX_62280858_62281466, 4933402E13Rik, Promoter (2-3kb)) was -2.07. For the same compound, the “Fold(YACEi/YAC)” value (H3K9me3 ChIP peak chrX_66814240_66814775, Mir470, Promoter (<=1kb)) was -2.86, the “Fold(YACEi/YAC)” value (H3K9me3 ChIP peak chrX_68010275_68010563, Mir509, Promoter (<=1kb)) was -3.86 and the “Fold(YACEi/YAC)” value (H3K9me3 ChIP peak chrX_72985743_72986276, Zfp185, Promoter (1-2kb)) was -2.91. The “Fold(YACEi/YAC)” value (H3K9me3 ChIP peak chrX_74085947_74086310, Mecp2, Promoter (<=1kb)) was -3.17, the “Fold(YACEi/YAC)” value (H3K9me3 ChIP peak chrX_74254068_74254967, Emd, Promoter (<=1kb)) was -2.9 and the “Fold(YACEi/YAC)” value (H3K9me3 ChIP peak chrX_100570155_100570557, Awat1, Promoter (1-2kb)) was -2.24. For the same compound, the “Fold(YACEi/YAC)” value (H3K9me3 ChIP peak chrX_100595739_100596091, P2ry4, Promoter (<=1kb)) was -2.74, the “Fold(YACEi/YAC)” value (H3K9me3 ChIP peak chrX_103413658_103414114, Tsx, Promoter (<=1kb)) was -2.74 and the “Fold(YACEi/YAC)” value (H3K9me3 ChIP peak chrX_112599521_112600132, Zfp711, Promoter (<=1kb)) was -3.8. The “Fold(YACEi/YAC)” value (H3K9me3 ChIP peak chrX_113186036_113186428, Chm, Promoter (<=1kb)) was -3.29, the “Fold(YACEi/YAC)” value (H3K9me3 ChIP peak chrX_120315318_120315582, H2afb3, Promoter (2-3kb)) was -3.46 and the “Fold(YACEi/YAC)” value (H3K9me3 ChIP peak chrX_120316028_120316808, H2afb3, Promoter (2-3kb)) was -3.74. For the same compound, the “Fold(YACEi/YAC)” value (H3K9me3 ChIP peak chrX_123101642_123102142, Cldn34c1, Promoter (1-2kb)) was -3.6, the “Fold(YACEi/YAC)” value (H3K9me3 ChIP peak chrX_134057860_134058275, Cstf2, Promoter (<=1kb)) was -2.34 and the “Fold(YACEi/YAC)” value (H3K9me3 ChIP peak chrX_134162152_134162880, Xkrx, Promoter (<=1kb)) was -2.18. The “Fold(YACEi/YAC)” value (H3K9me3 ChIP peak chrX_134757222_134757422, Mir7093, Promoter (<=1kb)) was -2.8, the “Fold(YACEi/YAC)” value (H3K9me3 ChIP peak chrX_142294260_142294634, Gm5643, Promoter (2-3kb)) was -2.73 and the “Fold(YACEi/YAC)” value (H3K9me3 ChIP peak chrX_142390366_142390928, Acsl4, Promoter (<=1kb)) was -2.3. For the same compound, the “Fold(YACEi/YAC)” value (H3K9me3 ChIP peak chrX_150550381_150550648, Mir3620, Promoter (2-3kb)) was -2.24, the “Fold(YACEi/YAC)” value (H3K9me3 ChIP peak chrX_152231158_152231359, Kdm5c, Promoter (1-2kb)) was -3.16 and the “Fold(YACEi/YAC)” value (H3K9me3 ChIP peak chrX_152560343_152560717, Cldn34a, Promoter (2-3kb)) was -4.14. The “Fold(YACEi/YAC)” value (H3K9me3 ChIP peak chrX_152562252_152562894, Cldn34a, Promoter (<=1kb)) was -2.56, the “Fold(YACEi/YAC)” value (H3K9me3 ChIP peak chrX_153139912_153140739, Rragb, Promoter (<=1kb)) was -2.81 and the “Fold(YACEi/YAC)” value (H3K9me3 ChIP peak chrX_158043367_158043944, Cnksr2, Promoter (<=1kb)) was -2.16. The “Fold(YACEi/YAC)” value (H3K9me3 ChIP peak chrX_159623974_159624438, Sh3kbp1, Promoter (2-3kb)) was -3.85, the “Fold(YACEi/YAC)” value (H3K9me3 ChIP peak chrX_159987543_159987820, Map3k15, Promoter (<=1kb)) was -3.61 and the “Fold(YACEi/YAC)” value (H3K9me3 ChIP peak chrX_161115587_161115938, Scml2, Promoter (1-2kb)) was -2.64. The “Fold(YACEi/YAC)” value (H3K9me3 ChIP peak chrX_162760032_162760397, Rbbp7, Promoter (<=1kb)) was -3.13, the “Fold(YACEi/YAC)” value (H3K9me3 ChIP peak chrX_166236123_166236395, Gpm6b, Promoter (2-3kb)) was -4.18 and the “Fold(YACEi/YAC)” value (H3K9me3 ChIP peak chrX_166439947_166441101, Ofd1, Promoter (<=1kb)) was -2.41. For the same compound, the “Fold(YACEi/YAC)” value (H3K9me3 ChIP peak chrX_166482184_166482633, Rab9, Promoter (2-3kb)) was -2.11, the “Fold(YACEi/YAC)” value (H3K9me3 ChIP peak chrX_167266371_167266766, Tlr8, Promoter (2-3kb)) was -3.38 and the “Fold(YACEi/YAC)” value (H3K9me3 ChIP peak chrX_169321353_169321792, Hccs, Promoter (<=1kb)) was -2.43. For the same compound, the “Fold(YACEi/YAC) H3K9me3 ChIP occupancy” value (Hsf3, Promoter (<=1kb), chrX_96456335_96456839) was -2.88, the “Fold(YACEi/YAC) H3K9me3 ChIP occupancy” value (Mageb18, Promoter (1-2kb), chrX_92601496_92601857) was -2.64 and the “Fold(YACEi/YAC) H3K9me3 ChIP occupancy” value (Prkx, Promoter (2-3kb), chrX_77798133_77798638) was -2.48. For the same compound, the “Fold(YACEi/YAC) H3K9me3 ChIP occupancy” value (Rbm3, Promoter (1-2kb), chrX_8147480_8147724) was -2.71, the “Fold(YACEi/YAC) H3K9me3 ChIP occupancy” value (Ssxb3, Promoter (2-3kb), chrX_8592171_8592736) was -2.75 and the “Fold(YACEi/YAC) H3K9me3 ChIP occupancy” value (Suv39h1, Promoter (1-2kb), chrX_8076427_8076637) was -2.8. The “Fold(YACEi/YAC) H3K9me3 ChIP occupancy” value (Wdr45, Promoter (1-2kb), chrX_7720185_7720585) was -3.17.
